According to US6737383B1, “Herbicidal oxadiazolidines” (priority 1999, dated 2004):

Assays:
blackgrass = experiment: Test B pre/postemergence blackgrass; format: in vivo, Alopecurus myosuroides
How it was run: (§1)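 Herbicidal effect was estimated by eye on a ten-point control scale after plants spent twelve to sixteen days in a greenhouse following soil or foliar treatment. Foliar sprays targeted plants at one to four leaves; all doses were formulated in a non-phytotoxic solvent with surfactant.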

sugar beet = experiment: Test B pre/postemergence sugar beet; format: in vivo, Beta vulgaris
How it was run: as §1

crabgrass = experiment: Test B pre/postemergence crabgrass; format: in vivo, Digitaria sanguinalis
How it was run: as §1

smallflower flatsedge = experiment: Test B flood test smallflower flatsedge; format: in vivo, Cyperus difformis
How it was run: (§2)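 Flood test on plants grown to the 2-leaf stage; treated plants kept in greenhouse twelve to sixteen days, then visually rated against controls on a 0 (no effect) to 10 (complete control) scale.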

soybean = experiment: Test B pre/postemergence soybean; format: in vivo, Glycine max
How it was run: as §1

bedstraw = experiment: Test B pre/postemergence bedstraw; format: in vivo, Galium aparine
How it was run: as §1

duck salad = experiment: Test B flood test duck salad; format: in vivo, Heteranthera limosa
How it was run: as §2

pigweed = experiment: Test B pre/postemergence pigweed; format: in vivo, Amaranthus retroflexus
How it was run: as §1

purple nutsedge = experiment: Test B pre/postemergence purple nutsedge; format: in vivo, Cyperus rotundus
How it was run: as §1

wild oat = experiment: Test B pre/postemergence wild oat; format: in vivo, Avena fatua
How it was run: as §1

rape = experiment: Test B pre/postemergence rape; format: in vivo, Brassica napus
How it was run: as §1

rice = experiment: Test B flood test rice; format: in vivo, Oryza sativa
How it was run: as §2

wheat = experiment: Test B pre/postemergence wheat; format: in vivo, Triticum aestivum
How it was run: as §1

corn = experiment: Test B pre/postemergence corn; format: in vivo, Zea mays
How it was run: as §1

surinam grass = experiment: Test B pre/postemergence surinam grass; format: in vivo, Brachiaria decumbens
How it was run: as §1

velvetleaf = experiment: Test B pre/postemergence velvetleaf; format: in vivo, Abutilon theophrasti
How it was run: as §1

[1] = Preemergence, Rate 62 g/ha, scale of 0 to 10 where 0 is no effect and 10 is complete control
[2] = Preemergence, Rate 125 g/ha, 0 is no effect, 10 is complete control
[3] = Preemergence, Rate 250 g/ha, scale 0 to 10, 0 is no effect, 10 is complete control
[4] = Preemergence, Rate 500 g/ha, scale of 0 to 10 where 0 is no effect and 10 is complete control
[5] = Rate 62 g/ha, Postemergence, scale of 0 to 10 where 0 is no effect and 10 is complete control
[6] = Rate 125 g/ha, Postemergence, scale 0 to 10
[7] = Rate 500 g/ha, Postemergence, scale 0 to 10
[8] = Rate 62 g/ha, headed Pre-emergence (flood test species), scale 0 to 10 (0 no effect, 10 complete control)
[9] = Rate 125 g/ha, Pre-emergence, flood test species, scale 0 to 10 where 0 is no effect and 10 is complete control
[10] = Rate 250 g/ha, Pre-emergence, flood-test species, scale 0 to 10, 0 is no effect, 10 is complete control
[11] = Rate 500 g/ha, headed Pre-emergence (flood test species), scale 0 to 10 (0 no effect, 10 complete control)

Compound: CCC(CC)N(C(=O)n1oc(=O)n(-c2ccccc2C)c1=O)c1ccc(F)cc1 [Compound 193]
- Blackgrass plant response rating (blackgrass; [1]): 0
- Blackgrass plant response rating (0 to 10 scale) (blackgrass; [2]): 0
- Blackgrass plant response rating (blackgrass; [3]): 0
- Plant response rating, Blackgrass (blackgrass; [4]): 0
- Blackgrass plant response rating (blackgrass; [5]): 0
- Blackgrass plant response rating (blackgrass; [6]): 0
- Plant response rating (0 to 10; 0 is no effect, 10 is complete control), Blackgrass (blackgrass; Rate 250 g/ha, Postemergence): 0
- Blackgrass plant response rating (blackgrass; [7]): 0
- Sugarbeets plant response rating (sugar beet; [1]): 0
- Sugarbeets plant response rating (0 to 10 scale) (sugar beet; [2]): 0
- Sugarbeets plant response rating (sugar beet; [3]): 0
- Plant response rating, Sugarbeets (sugar beet; [4]): 0
- Sugarbeets plant response rating (sugar beet; [5]): 0
- Sugarbeets plant response rating (sugar beet; [6]): 0
- Plant response rating (0 to 10; 0 is no effect, 10 is complete control), Sugarbeets (sugar beet; Rate 250 g/ha, Postemergence): 0
- Sugarbeets plant response rating (sugar beet; [7]): 0
- Crabgrass plant response rating (0 to 10 scale) (crabgrass; [2]): 4
- Crabgrass plant response rating (crabgrass; [3]): 6
- Plant response rating, Crabgrass (crabgrass; [4]): 7
- Crabgrass plant response rating (crabgrass; [5]): 0
- Crabgrass plant response rating (crabgrass; [6]): 0
- Plant response rating (0 to 10; 0 is no effect, 10 is complete control), Crabgrass (crabgrass; Rate 250 g/ha, Postemergence): 0
- Crabgrass plant response rating (crabgrass; [7]): 0
- S. Flatsedge plant response rating (smallflower flatsedge; [8]): 0
- S. Flatsedge plant response rating (smallflower flatsedge; [9]): 0
- S. Flatsedge plant response rating (smallflower flatsedge; [10]): 0
- S. Flatsedge plant response rating (smallflower flatsedge; Rate 500 g/ha, Pre-emergence, flood test species, scale 0 to 10 (0 no effect, 10 complete control)): 0
- Soybean plant response rating (soybean; [1]): 0
- Soybean plant response rating (0 to 10 scale) (soybean; [2]): 0
- Soybean plant response rating (soybean; [3]): 0
- Plant response rating, Soybean (soybean; [4]): 0
- Soybean plant response rating (soybean; [5]): 0
- Soybean plant response rating (soybean; [6]): 1
- Plant response rating (0 to 10; 0 is no effect, 10 is complete control), Soybean (soybean; Rate 250 g/ha, Postemergence): 1
- Soybean plant response rating (soybean; [7]): 2
- Bedstraw plant response rating (bedstraw; [1]): 0
- Bedstraw plant response rating (0 to 10 scale) (bedstraw; [2]): 0
- Bedstraw plant response rating (bedstraw; [3]): 0
- Plant response rating, Bedstraw (bedstraw; [4]): 0
- Bedstraw plant response rating (bedstraw; [5]): 0
- Bedstraw plant response rating (bedstraw; [6]): 0
- Plant response rating (0 to 10; 0 is no effect, 10 is complete control), Bedstraw (bedstraw; Rate 250 g/ha, Postemergence): 0
- Bedstraw plant response rating (bedstraw; [7]): 0
- Ducksalad plant response rating (duck salad; [8]): 0
- Ducksalad plant response rating (duck salad; [9]): 0
- Ducksalad plant response rating (duck salad; [10]): 0
- Plant response rating, Ducksalad (duck salad; [11]): 0
- Redroot pigweed plant response rating (pigweed; [1]): 0
- Redroot pigweed plant response rating (0 to 10 scale) (pigweed; [2]): 0
- Redroot pigweed plant response rating (pigweed; [3]): 0
- Plant response rating, Redroot pigweed (pigweed; [4]): 0
- Redroot pigweed plant response rating (pigweed; [5]): 0
- Redroot pigweed plant response rating (pigweed; [6]): 0
- Plant response rating (0 to 10; 0 is no effect, 10 is complete control), Redroot pigweed (pigweed; Rate 250 g/ha, Postemergence): 0
- Redroot pigweed plant response rating (pigweed; [7]): 0
- Nutsedge plant response rating (purple nutsedge; [1]): 0
- Nutsedge plant response rating (0 to 10 scale) (purple nutsedge; [2]): 0
- Nutsedge plant response rating (purple nutsedge; [3]): 0
- Plant response rating, Nutsedge (purple nutsedge; [4]): 0
- Nutsedge plant response rating (purple nutsedge; [5]): 0
- Nutsedge plant response rating (purple nutsedge; [6]): 0
- Plant response rating (0 to 10; 0 is no effect, 10 is complete control), Nutsedge (purple nutsedge; Rate 250 g/ha, Postemergence): 0
- Nutsedge plant response rating (purple nutsedge; [7]): 0
- Wild oats plant response rating (wild oat; [1]): 0
- Wild oats plant response rating (wild oat; [3]): 0
- Plant response rating, Wild oats (wild oat; [4]): 0
- Wild oats plant response rating (wild oat; [5]): 0
- Wild oats plant response rating (wild oat; [6]): 0
- Plant response rating (0 to 10; 0 is no effect, 10 is complete control), Wild oats (wild oat; Rate 250 g/ha, Postemergence): 0
- Rape plant response rating (rape; [1]): 0
- Rape plant response rating (0 to 10 scale) (rape; [2]): 0
- Rape plant response rating (rape; [3]): 0
- Plant response rating, Rape (rape; [4]): 0
- Rape plant response rating (rape; [5]): 0
- Rape plant response rating (rape; [6]): 0
- Plant response rating (0 to 10; 0 is no effect, 10 is complete control), Rape (rape; Rate 250 g/ha, Postemergence): 0
- Rape plant response rating (rape; [7]): 0
- Rice plant response rating (rice; [8]): 0
- Rice plant response rating (rice; [9]): 0
- Rice plant response rating (rice; [10]): 0
- Plant response rating, Rice (rice; [11]): 0
- Wheat plant response rating (wheat; [1]): 0
- Wheat plant response rating (wheat; [3]): 0
- Plant response rating, Wheat (wheat; [4]): 0
- Wheat plant response rating (wheat; [5]): 0
- Wheat plant response rating (wheat; [6]): 0
- Plant response rating (0 to 10; 0 is no effect, 10 is complete control), Wheat (wheat; Rate 250 g/ha, Postemergence): 0
- Corn plant response rating (corn; [1]): 0
- Corn plant response rating (0 to 10 scale) (corn; [2]): 0
- Corn plant response rating (corn; [3]): 0
- Plant response rating, Corn (corn; [4]): 0
- Corn plant response rating (corn; [5]): 0
- Corn plant response rating (corn; [6]): 0
- Plant response rating (0 to 10; 0 is no effect, 10 is complete control), Corn (corn; Rate 250 g/ha, Postemergence): 0
- Corn plant response rating (corn; [7]): 0
- B. signalgrass plant response rating (surinam grass; [1]): 0
- B. signalgrass plant response rating (0 to 10 scale) (surinam grass; [2]): 0
- B. signalgrass plant response rating (surinam grass; [3]): 0
- Plant response rating, B. signalgrass (surinam grass; [4]): 0
- B. signalgrass plant response rating (surinam grass; [5]): 0
- B. signalgrass plant response rating (surinam grass; Rate 125 g/ha, Postemergence, scale 0 (no effect) to 10 (complete control)): 0
- Plant response rating, B. signalgrass (surinam grass; Rate 250 g/ha, Postemergence, scale 0 to 10, 0 is no effect, 10 is complete control): 0
- B. signalgrass plant response rating (surinam grass; Rate 500 g/ha, Postemergence, scale 0 to 10, 0 no effect, 10 complete control): 0
- Velvetleaf plant response rating (velvetleaf; [1]): 0
- Velvetleaf plant response rating (velvetleaf; [3]): 0
- Plant response rating, Velvetleaf (velvetleaf; [4]): 0
- Velvetleaf plant response rating (velvetleaf; [5]): 0
- Velvetleaf plant response rating (velvetleaf; [6]): 0
- Plant response rating (0 to 10; 0 is no effect, 10 is complete control), Velvetleaf (velvetleaf; Rate 250 g/ha, Postemergence): 0
